Reference: US11312690B2, “Compounds, compositions, methods for treating diseases, and methods for preparing compounds” (UNIVERSITY OF LOUISVILLE RESEARCH FOUNDATION, INC., priority 2015, dated 2022)

Experiments:
[1] = target: T1, interaction of K-Ras with RGL2 (Homo sapiens, UniProt O15211); test: Ras/RalGEF binding, immunoprecipitation and immunoblot from co-transfected HEK-293 cells; settings: 10 μM, HA K-Ras 12v and GFP-RGL2, IP/IB, FIG. 3B
T1 construct: expressed in transfected cells; host or cells: HEK-293
T1 sequence (O15211 1-777): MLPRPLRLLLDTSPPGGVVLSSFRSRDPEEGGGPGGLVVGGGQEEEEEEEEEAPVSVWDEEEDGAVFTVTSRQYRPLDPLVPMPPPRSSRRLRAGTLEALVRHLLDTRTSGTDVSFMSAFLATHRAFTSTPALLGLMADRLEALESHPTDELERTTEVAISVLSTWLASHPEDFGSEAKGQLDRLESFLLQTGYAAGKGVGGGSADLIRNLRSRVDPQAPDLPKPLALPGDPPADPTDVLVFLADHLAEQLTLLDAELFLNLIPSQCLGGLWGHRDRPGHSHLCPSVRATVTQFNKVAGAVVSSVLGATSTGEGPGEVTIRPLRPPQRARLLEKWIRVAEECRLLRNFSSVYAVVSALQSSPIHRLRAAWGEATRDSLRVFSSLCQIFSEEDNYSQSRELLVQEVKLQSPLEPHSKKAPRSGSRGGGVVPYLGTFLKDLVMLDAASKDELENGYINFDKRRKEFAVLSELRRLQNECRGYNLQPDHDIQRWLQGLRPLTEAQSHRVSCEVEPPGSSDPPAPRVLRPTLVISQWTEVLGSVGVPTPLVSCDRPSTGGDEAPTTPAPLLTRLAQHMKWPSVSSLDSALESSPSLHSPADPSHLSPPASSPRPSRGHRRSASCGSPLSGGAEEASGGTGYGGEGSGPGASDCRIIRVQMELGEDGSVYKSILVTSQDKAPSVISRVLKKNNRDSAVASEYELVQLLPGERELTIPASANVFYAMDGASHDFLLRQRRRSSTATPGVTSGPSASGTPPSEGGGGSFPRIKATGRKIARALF

[2] = tested on: Panc-1; test: Soft agar colony formation; assay type: cell-based, human
Protocol: FIG. 1. Effects of some compounds of Formula (I) on RalGEF inhibitor on soft agar growth and normal growth in 2D of pancreatic carcinoma cell lines. In FIGS. 1A and 1B, Panc-1 (ATCC® CRL-1469™) and MiaPaCa-2 (ATCC® CRL-1420™) mutant Ras containing pancreatic tumor cell lines were plated in soft agar in the presence of 10 μM or 0.9 μM of compound I-1 and scored for the formation of colonies. In FIGS. 1C and 1D, compound I-1 was then tested for the ability to inhibit cell growth on the same cell lines under normal 2D growth conditions on plastic. “0” is the carrier. Cells were seeded at the same density and scored after two weeks in culture.
Human pancreatic tumor cell lines MiaPaca-2 and Panc-1 contain activated K-Ras and were used in the initial screen to identify compound I-1. Soft agar colony formation remains an established in vitro assay to predict tumorigenicity and was used to predict tumorigenicity for compound I-1.

[3] = tested on: Ral; test: Endogenous Ral activation in cells with endogenous hyper-activated Ras (RalBP1 pull down kit); assay type: cell-based; settings: 10 μM, untransfected cells, FIG. 4
Protocol: Specific Inhibition of endogenous Ras/RalGEF signaling. FIG. 4. Specific suppression of Ral activation by some compounds of Formula (I). Cells with endogenous hyper-activated Ras were assayed for endogenous Ral activation in the presence or absence of inhibitor (10 μM) using a Cell Biolabs (SanDiego Calif.) kit. Compound I-1 was dissolved in DMSO; DMSO serves as the carrier negative control. IP is immunoprecipitation. IB is immunoblot. Cell lysates were then assayed for the levels of MAPK pathway activation using a phosphoERK antibody. They were the same. Actin is a loading control.
RalGEFs drive Ral into the active, GTP bound form so it can bind its effector RalBP1. […] Commercially available kits available from several vendors use RalBP1 attached to beads as an affinity reagent specific to the active form of Ral. By measuring the level of activated Ral and comparing it to the total levels of Ral, it is possible to measure the state of endogenous Ral activation. We assayed untransfected cells containing endogenous hyper-activated Ras for the effects of compound I-1 treatment on endogenous levels of active Ral levels.

[4] = tested on: RalA; test: Activated RalA pull down in lung tissue of Mia-PaCa2 xenograft mice; assay type: in vivo, NRG mice; settings: treated vs carrier treated xenograft mouse, FIG. 5
Protocol: Some compounds of Formula (I) suppress Ral GTP levels in vivo—FIG. 5 NRG mice were provided with s.c. xenografts of Mia-PaCa2 cells. Tissue from the lungs of a carrier treated xenograft mouse and a compound I-1 treated mouse were assayed for the levels of activated RalA using a pull down assay kit using the manufacter's protocol (Cat. #BK040 from Cytoskeleton, Inc., Denver Colo.).

[5] = tested on: Panc-1; test: Normal 2D growth on plastic; assay type: cell-based, human; settings: normal 2D growth conditions on plastic, 1 week, FIG. 1C
Protocol: (§1) FIG. 1. Effects of some compounds of Formula (I) on RalGEF inhibitor on soft agar growth and normal growth in 2D of pancreatic carcinoma cell lines. In FIGS. 1A and 1B, Panc-1 (ATCC® CRL-1469™) and MiaPaCa-2 (ATCC® CRL-1420™) mutant Ras containing pancreatic tumor cell lines were plated in soft agar in the presence of 10 μM or 0.9 μM of compound I-1 and scored for the formation of colonies. In FIGS. 1C and 1D, compound I-1 was then tested for the ability to inhibit cell growth on the same cell lines under normal 2D growth conditions on plastic. “0” is the carrier. […]

[6] = tested on: MiaPaCa-2; test: Normal 2D growth on plastic; assay type: cell-based, human; settings: normal 2D growth conditions on plastic, 1 week, FIG. 1D
Protocol: as §1

SMILES: COc1cccc(CNc2nc(CN(C)Cc3cccc(OC)c3)nc3sc(C)c(C)c23)c1 [Compound I-1]
- inhibition of RGL2 (Ras/RGL2 interaction) [1]: also inhibited RGL2
- ability of the cells to grow in soft agar ([2]; 10 μM, FIG. 1A): almost completely blocked
- tumorigenic phenotype in vitro ([2]; FIG. 1A): blocks the tumorigenic phenotype in vitro at low μM or sub μM levels
- IC50 ([2]; Homo sapiens, PANC-1, soft agar, titration experiments, data not shown, read-out: IC50 (concentration that inhibits 50% of colony formation)): < 1 µM
- levels of endogenous active Ral (GTP bound) [3]: suppressed the levels of endogenous active Ral
- levels of active RalA in lung tissue [4]: reduced levels of active RalA
- cell growth in 2D [5]: no reduction in growth
- cell growth in 2D [6]: no reduction in growth
